The source of these data is PMC3726002 (Bioorganic & medicinal chemistry letters, 2011).

The structures appear in SMILES notation. pIC50: −log10 of the molar value.

The target of series [1] is α9α10 nAChRs (Rattus norvegicus, UniProt P43144+Q9JLB5). In kind it is cell-based. The settings on record: for selectivity for the α9α10 subtype vs. the α7 subtype: ratio of α7 to α9α10 IC50; for inhibition of α9α10 ACh-gated currents at the probe concentration: 100 nM probe concentration, result in words.
For series [2] the following is noted: phase 2; cited from earlier work.
The conditions of series [3]: cited from earlier work; for tolerance to the antihyperalgesic effect: rat, repeated dosing (7 days).
For series [4] the following is noted: rat; cited from earlier work.
For series [5] the following is noted: rat CCI pain model as printed; cited from earlier work.
The conditions of series [6]: cited from earlier work.
Series [7] concerns the target α7 nAChR (Rattus norvegicus, UniProt Q05941). In kind it is cell-based.
In series [8] the target is κ-opioid receptors (Homo sapiens, UniProt P41145). Nature of the series: Affinity for κ-opioid receptors. Format: binding. The settings on record: unpublished data.
Series [9] concerns the target GABAB receptors (Homo sapiens, UniProt O75899+Q9UBS5). Nature of the series: Interaction with GABAB receptors. Conditions: unpublished data.
Series [10] concerns GABAA receptors. Nature of the series: Interaction with GABAA receptors. The settings on record: unpublished data.
Series [11] deals with T1, 5HT3 receptors (Homo sapiens, UniProt P46098).
T1 sequence (P46098 24-478): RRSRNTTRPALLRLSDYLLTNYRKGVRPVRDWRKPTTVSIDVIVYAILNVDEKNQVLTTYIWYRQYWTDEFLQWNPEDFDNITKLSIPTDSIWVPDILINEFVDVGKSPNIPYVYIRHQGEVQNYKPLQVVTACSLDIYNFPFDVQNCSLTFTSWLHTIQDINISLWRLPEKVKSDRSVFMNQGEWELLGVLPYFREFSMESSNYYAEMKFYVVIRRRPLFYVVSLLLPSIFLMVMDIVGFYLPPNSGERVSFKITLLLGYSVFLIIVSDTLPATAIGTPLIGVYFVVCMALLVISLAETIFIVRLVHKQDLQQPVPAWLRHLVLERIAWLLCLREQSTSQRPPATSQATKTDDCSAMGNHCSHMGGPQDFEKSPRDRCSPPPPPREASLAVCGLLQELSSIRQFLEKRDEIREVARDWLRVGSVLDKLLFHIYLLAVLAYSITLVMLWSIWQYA
Put plainly: Affinity for 5HT3 receptors. In kind it is binding. The settings on record: unpublished data.

Sequence of α7 nAChR (Q05941 23-502): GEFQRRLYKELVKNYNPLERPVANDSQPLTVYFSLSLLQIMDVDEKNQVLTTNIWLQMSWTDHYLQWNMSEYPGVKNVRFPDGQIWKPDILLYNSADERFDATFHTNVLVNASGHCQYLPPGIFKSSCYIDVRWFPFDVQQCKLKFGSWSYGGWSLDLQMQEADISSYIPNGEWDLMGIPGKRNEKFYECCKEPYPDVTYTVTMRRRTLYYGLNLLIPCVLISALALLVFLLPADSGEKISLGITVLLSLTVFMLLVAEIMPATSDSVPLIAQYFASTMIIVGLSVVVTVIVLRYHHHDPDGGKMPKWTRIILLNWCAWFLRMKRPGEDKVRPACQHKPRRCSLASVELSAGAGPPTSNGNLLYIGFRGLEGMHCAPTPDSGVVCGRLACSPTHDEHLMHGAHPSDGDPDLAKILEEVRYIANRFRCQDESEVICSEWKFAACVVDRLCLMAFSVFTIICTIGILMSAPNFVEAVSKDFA
Sequence of α9α10 nAChRs (P43144 26-479): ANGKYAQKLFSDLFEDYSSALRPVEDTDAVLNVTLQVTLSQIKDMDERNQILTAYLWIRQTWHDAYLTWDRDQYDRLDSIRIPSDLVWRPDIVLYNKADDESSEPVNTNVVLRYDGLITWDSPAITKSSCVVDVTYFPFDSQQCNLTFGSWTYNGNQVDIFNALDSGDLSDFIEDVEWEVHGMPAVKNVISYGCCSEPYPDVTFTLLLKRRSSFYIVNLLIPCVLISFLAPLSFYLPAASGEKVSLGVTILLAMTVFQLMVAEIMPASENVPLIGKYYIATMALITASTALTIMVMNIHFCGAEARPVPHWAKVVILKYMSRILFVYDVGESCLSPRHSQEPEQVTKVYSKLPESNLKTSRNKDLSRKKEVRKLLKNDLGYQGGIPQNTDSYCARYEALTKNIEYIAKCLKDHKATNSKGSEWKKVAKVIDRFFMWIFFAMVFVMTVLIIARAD
Sequence of α9α10 nAChRs (Q9JLB5 25-447): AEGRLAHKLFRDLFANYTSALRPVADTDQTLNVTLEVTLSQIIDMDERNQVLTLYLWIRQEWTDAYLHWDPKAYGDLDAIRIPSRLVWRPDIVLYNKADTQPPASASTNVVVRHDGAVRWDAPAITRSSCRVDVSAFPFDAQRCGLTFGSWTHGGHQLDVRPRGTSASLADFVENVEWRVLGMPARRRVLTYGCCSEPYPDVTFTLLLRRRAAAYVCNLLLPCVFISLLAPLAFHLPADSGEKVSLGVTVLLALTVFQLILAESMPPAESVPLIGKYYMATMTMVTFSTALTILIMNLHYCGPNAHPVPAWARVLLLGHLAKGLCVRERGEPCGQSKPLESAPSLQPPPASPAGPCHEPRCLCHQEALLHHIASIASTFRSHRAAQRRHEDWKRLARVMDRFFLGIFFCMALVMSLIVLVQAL
Sequence of κ-opioid receptors (P41145 whole entry): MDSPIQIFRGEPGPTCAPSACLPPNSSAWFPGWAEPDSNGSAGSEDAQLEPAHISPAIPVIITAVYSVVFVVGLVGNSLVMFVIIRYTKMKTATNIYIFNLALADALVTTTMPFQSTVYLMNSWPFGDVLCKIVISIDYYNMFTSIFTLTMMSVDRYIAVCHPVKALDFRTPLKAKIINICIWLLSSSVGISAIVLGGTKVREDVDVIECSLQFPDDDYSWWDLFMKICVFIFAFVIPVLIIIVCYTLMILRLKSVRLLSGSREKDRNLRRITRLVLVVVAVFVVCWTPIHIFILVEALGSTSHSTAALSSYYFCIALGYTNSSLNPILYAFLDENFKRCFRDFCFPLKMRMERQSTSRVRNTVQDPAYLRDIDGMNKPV
Sequence of GABAB receptors (Q9UBS5 15-961 limits assumed): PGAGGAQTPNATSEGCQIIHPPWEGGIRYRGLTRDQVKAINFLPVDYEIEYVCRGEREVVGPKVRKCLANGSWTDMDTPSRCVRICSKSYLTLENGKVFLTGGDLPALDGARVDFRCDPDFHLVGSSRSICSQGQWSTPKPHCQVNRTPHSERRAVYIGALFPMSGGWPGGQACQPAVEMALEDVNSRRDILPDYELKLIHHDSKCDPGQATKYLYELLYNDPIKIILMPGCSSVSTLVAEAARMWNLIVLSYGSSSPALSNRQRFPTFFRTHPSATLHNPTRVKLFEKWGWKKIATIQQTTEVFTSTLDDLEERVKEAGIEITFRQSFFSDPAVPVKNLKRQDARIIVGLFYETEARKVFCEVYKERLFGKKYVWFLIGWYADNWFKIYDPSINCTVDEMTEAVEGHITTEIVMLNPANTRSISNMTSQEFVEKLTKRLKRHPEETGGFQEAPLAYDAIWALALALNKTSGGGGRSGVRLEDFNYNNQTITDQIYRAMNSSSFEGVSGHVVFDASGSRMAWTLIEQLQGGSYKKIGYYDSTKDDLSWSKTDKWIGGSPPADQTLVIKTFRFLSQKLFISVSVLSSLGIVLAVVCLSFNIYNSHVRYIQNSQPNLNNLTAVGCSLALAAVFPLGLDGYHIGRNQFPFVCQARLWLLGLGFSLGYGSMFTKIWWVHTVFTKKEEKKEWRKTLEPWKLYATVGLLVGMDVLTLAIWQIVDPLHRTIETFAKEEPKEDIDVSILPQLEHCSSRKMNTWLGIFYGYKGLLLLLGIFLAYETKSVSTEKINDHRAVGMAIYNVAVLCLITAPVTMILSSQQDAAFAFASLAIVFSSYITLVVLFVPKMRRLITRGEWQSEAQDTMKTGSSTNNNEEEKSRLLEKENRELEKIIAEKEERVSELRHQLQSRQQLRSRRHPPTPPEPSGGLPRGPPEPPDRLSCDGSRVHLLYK
Sequence of GABAB receptors (O75899 42-941): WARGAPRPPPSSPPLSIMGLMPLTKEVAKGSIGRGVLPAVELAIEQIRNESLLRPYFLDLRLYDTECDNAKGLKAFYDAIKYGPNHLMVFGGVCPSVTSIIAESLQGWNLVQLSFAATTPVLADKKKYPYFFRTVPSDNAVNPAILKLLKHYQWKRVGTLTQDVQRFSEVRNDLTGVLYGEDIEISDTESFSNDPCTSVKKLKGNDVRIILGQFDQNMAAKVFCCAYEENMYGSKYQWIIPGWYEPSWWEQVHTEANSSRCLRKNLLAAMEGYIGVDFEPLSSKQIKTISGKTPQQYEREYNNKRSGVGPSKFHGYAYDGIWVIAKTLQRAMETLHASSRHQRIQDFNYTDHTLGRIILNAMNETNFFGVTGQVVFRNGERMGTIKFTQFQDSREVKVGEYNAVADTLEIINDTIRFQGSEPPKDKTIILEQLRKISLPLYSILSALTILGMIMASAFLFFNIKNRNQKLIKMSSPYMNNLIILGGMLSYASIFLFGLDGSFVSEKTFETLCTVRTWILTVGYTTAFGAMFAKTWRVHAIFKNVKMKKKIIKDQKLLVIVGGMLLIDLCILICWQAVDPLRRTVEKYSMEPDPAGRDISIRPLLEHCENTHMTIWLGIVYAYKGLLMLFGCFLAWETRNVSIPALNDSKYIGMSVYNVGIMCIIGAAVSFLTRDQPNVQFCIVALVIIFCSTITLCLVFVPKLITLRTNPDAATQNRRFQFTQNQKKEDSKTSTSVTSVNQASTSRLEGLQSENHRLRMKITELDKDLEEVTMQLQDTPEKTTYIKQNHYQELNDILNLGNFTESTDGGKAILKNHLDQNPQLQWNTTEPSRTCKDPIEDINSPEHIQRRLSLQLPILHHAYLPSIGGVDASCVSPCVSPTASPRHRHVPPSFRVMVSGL

On to `Cc1cc[n+](CC#Cc2ccc(-c3ccc(C#CC[n+]4ccc(C)c(C)c4)cc3)cc2)cc1C.[Br-].[Br-]` [Compound 7a], for which the “selectivity for the α9α10 subtype vs. the α7 subtype” value in [1] was determined as 75 fold. In addition, the “analgesic effect in the rat formalin model” value in series [2] is “demonstrated an analgesic effect”. Also, in [3], the “effect on mechanical hyperalgesia in the rat CCI model” value (“effect on mechanical hyperalgesia” for short) is on record as “reversed mechanical hyperalgesia in a dose-related manner” and the “tolerance to the antihyperalgesic effect” value is “not observed”. In addition, the “efficacious doses versus doses producing toxicity in the rotarod test” value in series [4] is reported as “efficacy was achieved at doses well below those that produced toxicity”. For the same compound, the “alleviation of vincristin-induced neuropathic pain” value in series [5] is “effective”. Besides, in series [6], the “analgesic effect in the rat tail-flick test” value was “ineffective”.

By pIC50 is commonly meant the negative decadic logarithm of the IC50, by convention in mol/L. Turning to `Cc1cc[n+](CCCc2ccc(-c3ccc(CCC[n+]4ccc(C)c(C)c4)cc3)cc2)cc1C.[Br-].[Br-]` [Compound 8a], in [1], the pIC50 was 6.17 and the “selectivity for the α9α10 subtype vs. the α7 subtype” value was 9 fold. This compound had a pIC50 in series [7] of 5.22.

Consider `C(#Cc1cc(C#CCCC[n+]2cccc(-c3ccccc3)c2)cc(C#CCCC[n+]2cccc(-c3ccccc3)c2)c1)CCC[n+]1cccc(-c2ccccc2)c1` [Compound 9e], for which the results for the pIC50 in series [1] and in series [7] were 8.77 and 6.73, respectively.

Regarding `[Br-].[Br-].[Br-].c1ccc2c(c1)ccc[n+]2CCCCCc1cc(CCCCC[n+]2cccc3ccccc32)cc(CCCCC[n+]2cccc3ccccc32)c1` [Compound 10c], the negative logarithm of the IC50 (pIC50) in series [1] was 8.38. Also, the “analgesic effect in the rat formalin model” value in [2] is “demonstrated an analgesic effect”. Also, in series [3], the “effect on mechanical hyperalgesia” value is “reversed mechanical hyperalgesia in a dose-related manner” and the “tolerance to the antihyperalgesic effect” value is “not observed”. The “efficacious doses versus doses producing toxicity in the rotarod test” value in [4] is “efficacy was achieved at doses well below those that produced toxicity”. Moreover, in [7], the pIC50 is 5.82. For the same compound, the “analgesic effect in the rat tail-flick test” value in [6] is “ineffective”.

As to `c1ccc2c[n+](CCCCCc3cc(CCCCC[n+]4ccc5ccccc5c4)cc(CCCCC[n+]4ccc5ccccc5c4)c3)ccc2c1` [Compound 10d], the pIC50 is 8.32 in series [1] and 6.77 in [7].

Take `c1ccc(-c2ccc[n+](CCCCCc3cc(CCCCC[n+]4cccc(-c5ccccc5)c4)cc(CCCCC[n+]4cccc(-c5ccccc5)c4)c3)c2)cc1` [Compound 10e]: the results for the pIC50 in [1] and in [7] were 8.43 and 7.04, respectively.

On to `Cc1cc(C)c[n+](CCCC#Cc2cc(C#CCCC[n+]3cc(C)cc(C)c3)c(C#CCCC[n+]3cc(C)cc(C)c3)cc2C#CCCC[n+]2cc(C)cc(C)c2)c1.[Br-].[Br-].[Br-].[Br-]` [Compound 11b], for which the “inhibition of α9α10 ACh-gated currents at the probe concentration” value (“inhibition of α9α10 ACh-gated currents” below) in [1] was “nearly complete inhibition”.

Consider `C(#Cc1cc(C#CCCC[n+]2cccc(-c3ccccc3)c2)c(C#CCCC[n+]2cccc(-c3ccccc3)c2)cc1C#CCCC[n+]1cccc(-c2ccccc2)c1)CCC[n+]1cccc(-c2ccccc2)c1.[Br-].[Br-].[Br-].[Br-]` [Compound 11e], for which, in [8], the “affinity for κ-opioid receptors compared to α9α10 nAChRs” value is “several orders of magnitude lower affinity”. Besides, in [9], the “interaction with GABAB receptors” value is “does not interact”. Also, the “interaction with GABAA receptors” value in series [10] is “does not interact”. In [1], the pIC50 was 9.25 and the “inhibition of α9α10 ACh-gated currents” value was “nearly complete inhibition”. In series [2], the “analgesic effect in the rat formalin model” value is “demonstrated an analgesic effect”. Also, in series [3], the “effect on mechanical hyperalgesia” value is on record as “reversed mechanical hyperalgesia in a dose-related manner” and the “tolerance to the antihyperalgesic effect” value is “not observed”. The “efficacious doses versus doses producing toxicity in the rotarod test” value in series [4] is on record as “efficacy was achieved at doses well below those that produced toxicity”. The “affinity for 5HT3 receptors compared to α9α10 nAChRs” value in [11] is reported as “several orders of magnitude lower affinity”. In series [7], this compound had a pIC50 of 8.06. Also, the “analgesic effect in the rat tail-flick test” value in series [6] is “ineffective”.

Consider `Cc1cc(C)c[n+](CCCCCc2cc(CCCCC[n+]3cc(C)cc(C)c3)c(CCCCC[n+]3cc(C)cc(C)c3)cc2CCCCC[n+]2cc(C)cc(C)c2)c1.[Br-].[Br-].[Br-].[Br-]` [Compound 12b], for which the “inhibition of α9α10 ACh-gated currents” value in series [1] was “nearly complete inhibition”.
